Calls of active or inactive are those of the source.
How the values were obtained:
Protein skinhead-1 = target: T1, Protein skinhead-1 (Caenorhabditis elegans, UniProt P34707); type: functional
T1 sequence (P34707 whole entry): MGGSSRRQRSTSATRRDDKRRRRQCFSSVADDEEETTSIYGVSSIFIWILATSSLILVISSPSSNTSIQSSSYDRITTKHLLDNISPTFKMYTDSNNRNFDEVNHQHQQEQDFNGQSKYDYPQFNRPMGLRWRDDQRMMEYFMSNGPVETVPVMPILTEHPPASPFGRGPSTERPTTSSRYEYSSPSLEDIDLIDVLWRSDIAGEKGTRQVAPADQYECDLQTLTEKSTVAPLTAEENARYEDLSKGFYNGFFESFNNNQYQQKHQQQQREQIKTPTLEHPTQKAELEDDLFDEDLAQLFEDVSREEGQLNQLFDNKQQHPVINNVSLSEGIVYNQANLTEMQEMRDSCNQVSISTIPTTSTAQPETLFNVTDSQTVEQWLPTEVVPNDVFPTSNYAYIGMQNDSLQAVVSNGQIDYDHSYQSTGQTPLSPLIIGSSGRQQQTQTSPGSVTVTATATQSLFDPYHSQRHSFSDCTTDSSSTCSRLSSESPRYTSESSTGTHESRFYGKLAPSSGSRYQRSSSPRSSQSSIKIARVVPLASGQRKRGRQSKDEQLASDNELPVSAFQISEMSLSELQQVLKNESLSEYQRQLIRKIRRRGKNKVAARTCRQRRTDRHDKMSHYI

[1] = inhibitors of firefly luciferase expression or activity, dose response, H4 neuroglioma cells, luminescence (AID 1990); type: functional, cell-based
BJ [2] = test: cytotoxicity toward BJ-TERT-LT-ST fibroblasts, dose response, cell-based, RAS-independent, luminescence (AID 1935); type: functional; details: Homo sapiens;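 also: BJ fibroblasts immortalized with TERT plus LT and ST oncogenes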
[3] = inhibitors of SNCA 5'UTR-driven reporter translation, confirmation, H4 neuroglioma cells, luminescence (AID 1988); type: functional, cell-based
[4] = Luminescence Cell-Based Dose Response HTS to Identify Inhibitors of 5'UTR Stem-Loop Driven Prion Protein mRNA Translation in H4 Neuroglioblastoma Cells. [Related pubchem assays: 1827 (Project Summary), 1813 (Primary HTS)]; type: functional
BJ [5] = test: cells; type: functional, cell-based; details: Homo sapiens
BJ [6] = test: cytotoxicity toward BJ-TERT fibroblasts, dose response, cell-based, RAS-independent, luminescence (AID 1933); type: functional; details: Homo sapiens
[7] = cytotoxicity toward DRD oncogenic fibroblasts, dose response, cell-based, non-viral oncogenic, luminescence (AID 1934); type: functional; details: Homo sapiens
cells [8] = type: functional, cell-based
cells [9] = type: functional, cell-based; remark: listed apart in the source
[10] = inhibitors of intracellular T. cruzi replication, confirmation, NIH3T3 host cells, beta-gal luminescence (AID 2044); type: functional, cell-based;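 also: intracellular parasites grown in NIH/3T3 mouse fibroblasts as host cells; luminescent beta-galactosidase reporter signal from transgenic T. cruzi replicating inside host cells; inhibitors lower the luminescence signal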
[11] = cytotoxicity toward NIH3T3 fibroblasts, dose response, counter-screen, cell-based, ATP luminescence, mouse fibroblasts (AID 2010); type: functional;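 also: cells exposed to compound for about 90 hours before reading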
[12] = Luminescence Cell-Based Dose Retest to Confirm Inhibitors of Cancer Stem Cells. [Related pubchem assays (depositor defined):AID2717, AID2721]; type: functional; details: Homo sapiens
Streptococcus = test: Group A Streptococcus viability loss, dose response, counter-screen for streptokinase expression inhibitor project, luminescence, BacTiterGlo (AID 1915); type: functional, organism-based;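 also: potency for reduction of bacterial viability or growth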
[13] = tested on: Streptococcus sp. 'group A'; test: growth inhibition of control SK(-) GAS strain, dose response, counter-screen for streptokinase expression inhibitor project, luminescence, kanamycin, BacTiterGlo, confirmation (AID 1900); type: functional, organism-based
Streptokinase A = target: T2, Streptokinase A (Streptococcus pyogenes serotype M1, UniProt P10520); test: S. pyogenes streptokinase expression inhibitors, potency, dose response, plasminogen activation absorbance, OD405 (AID 1914); type: functional, Streptococcus pyogenes M1 GAS;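 also: secreted streptokinase activity via plasminogen activation per viability signal from cell pellet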
T2 sequence (P10520 whole entry): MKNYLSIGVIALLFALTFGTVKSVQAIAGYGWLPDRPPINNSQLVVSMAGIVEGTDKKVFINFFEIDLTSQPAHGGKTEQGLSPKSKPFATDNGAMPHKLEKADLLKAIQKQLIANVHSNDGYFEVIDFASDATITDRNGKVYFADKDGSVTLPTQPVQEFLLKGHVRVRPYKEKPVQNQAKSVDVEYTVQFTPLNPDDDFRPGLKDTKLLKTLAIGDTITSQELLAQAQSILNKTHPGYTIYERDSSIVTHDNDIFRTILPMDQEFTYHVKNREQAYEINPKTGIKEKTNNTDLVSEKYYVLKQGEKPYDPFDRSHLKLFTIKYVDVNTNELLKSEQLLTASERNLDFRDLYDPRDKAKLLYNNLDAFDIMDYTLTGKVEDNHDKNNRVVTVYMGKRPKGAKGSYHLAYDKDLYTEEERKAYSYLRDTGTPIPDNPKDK

Cytochrome P450 2C19 = Cytochrome P450 2C19 (Homo sapiens, UniProt P33261); test: Cytochrome panel assay with activity outcomes. Panel member name: p450-cyp2c19 Compounds with AC50 equal or less than 10 uM are considered active; type: functional; details: read-out: AC50
[14] = Luminescence Cell-Based Dose Response HTS to Identify Activators of Luciferase Translation or Activity in H4 […] Cells. [Related pubchem assays: 1829 (Project Summary), 1814 (Primary HTS)]; type: functional
H4 = test: Luminescence Cell-Based Dose Response HTS to Identify Activators of 5'UTR Stem-Loop Driven Prion Protein mRNA Translation in H4 Neuroglioblastoma Cells. [Related pubchem assays: 1829 (Project Summary), 1814 (Primary HTS)]; type: functional; details: Homo sapiens
[15] = Luminescence Cell-Based Dose Confirmation HTS to Identify Activators of 5'UTR Stem-Loop Driven Alpha-Synuclein mRNA Translation in H4 Neuroglioblastoma Cells. [Related pubchem assays: 1829 (Project Summary), 1814 (Primary HTS)]; type: functional
[16] = Luminescence Cell-Based Dose Confirmation HTS to Identify Inhibitors of Platelet Dense Granule Release. [Related pubchem assays: 1663 (Primary HTS), 1678 (Summary of Project)]; type: functional
[17] = target: Luciferin 4-monooxygenase (Photinus pyralis, UniProt P08659); test: firefly luciferase enzyme inhibitors, dose response, biochemical, luminescence (AID 1891)
[18] = target: T3, RNA-binding protein pos-1 (Caenorhabditis elegans, UniProt G5EF15); test: inhibitors of POS-1/mex-3 RNA binding, dose response, biochemical, fluorescence polarization (AID 1964);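 also: purified POS-1 fused to maltose binding protein made in E. coli; potency of compounds blocking POS-1 binding to fluorescent RNA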
T3 sequence (G5EF15 whole entry): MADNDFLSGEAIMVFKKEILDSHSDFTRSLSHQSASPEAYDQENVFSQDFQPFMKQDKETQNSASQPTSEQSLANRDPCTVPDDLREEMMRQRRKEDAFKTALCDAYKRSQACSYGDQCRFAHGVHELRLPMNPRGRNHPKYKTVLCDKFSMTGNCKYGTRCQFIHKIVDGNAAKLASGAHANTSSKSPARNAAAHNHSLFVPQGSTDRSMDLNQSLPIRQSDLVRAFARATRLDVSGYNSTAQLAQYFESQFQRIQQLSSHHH

[19] = target: T4, Zinc finger protein mex-5 (Caenorhabditis elegans, UniProt Q9XUB2); test: MEX-5/TCR-2 RNA interaction inhibitors, dose response, biochemical, C. elegans, fluorescence polarization (AID 1960)
T4 sequence (Q9XUB2 whole entry): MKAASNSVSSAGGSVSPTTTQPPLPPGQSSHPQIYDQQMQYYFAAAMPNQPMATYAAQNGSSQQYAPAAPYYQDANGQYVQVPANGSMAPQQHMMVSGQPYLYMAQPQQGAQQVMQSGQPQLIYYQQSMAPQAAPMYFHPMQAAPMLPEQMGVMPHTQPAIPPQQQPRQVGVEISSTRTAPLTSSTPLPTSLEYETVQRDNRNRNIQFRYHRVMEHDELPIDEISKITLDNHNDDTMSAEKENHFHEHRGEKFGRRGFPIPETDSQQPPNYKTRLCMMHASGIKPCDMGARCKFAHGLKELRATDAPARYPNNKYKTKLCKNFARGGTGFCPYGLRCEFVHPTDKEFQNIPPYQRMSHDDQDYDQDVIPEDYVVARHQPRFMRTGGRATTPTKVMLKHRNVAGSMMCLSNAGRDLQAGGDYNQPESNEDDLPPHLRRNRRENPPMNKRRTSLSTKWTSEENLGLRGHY

Cytochrome P450 2D6 = Cytochrome P450 2D6 (Homo sapiens, UniProt P10635);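 also: CYP2D6 member of a cytochrome P450 panel assay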
H9c2 = test: cells; type: functional, cell-based; details: Rattus norvegicus, H9c2, Myocardium;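 also: confirmatory concentration-response retest of ultra-high-throughput screening hits for modulation of myocardial damage; cell death induced by hydrogen peroxide oxidative stress; compound pretreatment for 60 min then peroxide exposure for 2 h; potency is for protecting the cells against peroxide damage rather than for killing them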
Paired box protein Pax-8 = Paired box protein Pax-8 (Homo sapiens, UniProt Q06710); test: inhibitors of PAX8-driven TPO luciferase reporter, dose response, RMG-I cells, cherry-pick (AID 687027); type: functional, cell-based;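 also: luciferase reporter driven by Pax8 target thyroperoxidase promoter measured by SteadyGlo luminescence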
Sequence of Paired box protein Pax-8 (Q06710 whole entry): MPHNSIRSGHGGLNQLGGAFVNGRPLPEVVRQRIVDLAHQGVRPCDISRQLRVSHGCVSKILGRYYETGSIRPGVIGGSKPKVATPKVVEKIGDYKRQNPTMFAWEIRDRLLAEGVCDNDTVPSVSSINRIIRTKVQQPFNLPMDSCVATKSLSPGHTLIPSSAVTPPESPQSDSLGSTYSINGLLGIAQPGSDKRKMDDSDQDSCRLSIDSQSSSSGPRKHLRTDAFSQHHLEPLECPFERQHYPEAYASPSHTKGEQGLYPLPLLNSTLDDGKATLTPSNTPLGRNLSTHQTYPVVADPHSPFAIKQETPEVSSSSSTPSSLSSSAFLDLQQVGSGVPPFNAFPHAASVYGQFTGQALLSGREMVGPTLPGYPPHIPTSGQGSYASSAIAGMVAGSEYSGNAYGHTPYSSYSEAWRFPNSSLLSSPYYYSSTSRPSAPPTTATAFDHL

Sequence of Cytochrome P450 2D6 (P10635 whole entry): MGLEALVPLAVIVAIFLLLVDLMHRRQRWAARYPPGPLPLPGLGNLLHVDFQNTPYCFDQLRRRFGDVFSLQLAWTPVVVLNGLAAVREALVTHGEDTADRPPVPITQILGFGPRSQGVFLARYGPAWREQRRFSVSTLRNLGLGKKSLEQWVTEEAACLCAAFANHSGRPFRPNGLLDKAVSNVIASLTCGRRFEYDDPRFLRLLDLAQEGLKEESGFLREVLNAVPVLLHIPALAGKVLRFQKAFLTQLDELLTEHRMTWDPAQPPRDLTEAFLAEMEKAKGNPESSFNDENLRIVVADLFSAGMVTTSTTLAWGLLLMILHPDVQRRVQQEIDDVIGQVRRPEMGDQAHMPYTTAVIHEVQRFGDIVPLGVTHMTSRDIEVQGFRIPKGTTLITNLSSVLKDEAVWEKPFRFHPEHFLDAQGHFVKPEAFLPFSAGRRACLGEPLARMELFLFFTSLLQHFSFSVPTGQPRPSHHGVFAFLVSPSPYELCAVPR
Sequence of Cytochrome P450 2C19 (P33261 whole entry): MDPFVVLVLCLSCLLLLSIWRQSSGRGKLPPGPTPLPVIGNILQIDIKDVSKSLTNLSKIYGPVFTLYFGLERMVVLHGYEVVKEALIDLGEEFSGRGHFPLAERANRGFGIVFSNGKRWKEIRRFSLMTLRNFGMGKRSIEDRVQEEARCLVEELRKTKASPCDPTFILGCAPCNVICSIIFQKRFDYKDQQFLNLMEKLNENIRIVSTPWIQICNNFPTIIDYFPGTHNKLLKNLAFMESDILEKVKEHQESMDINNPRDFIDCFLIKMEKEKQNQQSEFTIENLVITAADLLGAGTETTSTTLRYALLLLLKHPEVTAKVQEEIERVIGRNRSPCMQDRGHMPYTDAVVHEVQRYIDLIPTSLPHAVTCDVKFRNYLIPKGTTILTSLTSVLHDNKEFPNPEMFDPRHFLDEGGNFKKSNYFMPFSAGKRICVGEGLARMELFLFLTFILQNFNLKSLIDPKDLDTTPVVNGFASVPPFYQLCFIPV
Sequence of Luciferin 4-monooxygenase (P08659 whole entry, the tested form may be a part): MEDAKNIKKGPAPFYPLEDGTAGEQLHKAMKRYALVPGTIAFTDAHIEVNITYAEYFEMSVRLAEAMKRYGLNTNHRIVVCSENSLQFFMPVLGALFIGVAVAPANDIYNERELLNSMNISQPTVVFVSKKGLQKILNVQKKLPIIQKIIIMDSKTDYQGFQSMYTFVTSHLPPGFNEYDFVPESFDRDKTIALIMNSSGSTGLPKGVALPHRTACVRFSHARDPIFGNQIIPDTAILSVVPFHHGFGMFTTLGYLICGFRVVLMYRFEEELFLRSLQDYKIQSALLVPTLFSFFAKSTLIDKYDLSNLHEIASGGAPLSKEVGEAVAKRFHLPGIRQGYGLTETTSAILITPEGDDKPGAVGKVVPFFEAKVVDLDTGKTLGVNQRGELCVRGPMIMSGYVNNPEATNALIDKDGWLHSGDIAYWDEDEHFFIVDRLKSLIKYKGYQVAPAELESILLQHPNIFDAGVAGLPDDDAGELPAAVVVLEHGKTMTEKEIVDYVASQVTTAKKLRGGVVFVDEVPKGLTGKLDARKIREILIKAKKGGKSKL

FC(F)(F)c1cc(-c2ccccc2)nc(NC2CCCC2)n1
IC50 (Protein skinhead-1): > 100 µM (inactive)

Cc1ccc(C(=O)c2cc([N+](=O)[O-])ccc2N2CCOCC2)cc1
EC50 [1]: 7.57 µM (active)
EC50 (BJ [2]): 3.32 µM (inconclusive)
EC50 [3]: 1.73 µM (active)
EC50 [4]: 7.18 µM (active)
EC50 (BJ [5]): 36.1 µM (inconclusive)
EC50 (BJ [6]): 5.09 µM (active)
EC50 [7]: 2.27 µM (active)

Cc1ccc(-c2nc(=S)c3c(n2CCN2CCOCC2)CC(C)(C)OC3)cc1
IC50 (Protein skinhead-1): > 100 µM (inactive)

COc1ccc(CCNC(=O)CSc2nc(-c3ccc(OC)c(OC)c3)ccc2C#N)cc1
EC50 (cells [8]): > 350 µM (not active)
EC50 (cells [9]): > 350 µM (not active)

O=[N+]([O-])c1cc(CN2CCCC2)ccc1Sc1ccc(Cl)cc1
EC50 [10]: 0.232 µM (active)
EC50 [11]: 9.06 µM (active)
IC50 (Protein skinhead-1): 17.9 µM (active)

Cc1cccc2[nH]c3c(N4CC=C(c5ccc(F)cc5)CC4)ncnc3c12
AC50 [12]: 6.48 µM (active)
EC50 (Streptococcus): 7.98 µM (active)
EC50 [13]: 2.84 µM (active)
EC50 (Streptokinase A): > 150 µM (not active)

Cc1nc(C(=O)Nc2ccc(Cl)cc2Cl)nn1-c1cc(OC(C)C)c(Cl)cc1Cl
AC50 (Cytochrome P450 2C19): 7.08 µM (inconclusive)
EC50 (cells [8]): > 350 µM (not active)
EC50 (cells [9]): > 350 µM (not active)

O=C(CN1CCN(S(=O)(=O)c2ccc(Br)cc2)CC1)Nc1ccc2c(c1)OCO2
IC50 (Protein skinhead-1): > 100 µM (inactive)

O=C(NCc1ccco1)c1cc(-c2cccs2)on1
EC50 (cells [8]): 150 µM (active)
EC50 (cells [9]): > 350 µM (not active)

COc1ccccc1C(c1nnnn1CC1CCCO1)N1CCC(C(N)=O)CC1 (stereo unspecified)
EC50 (cells [8]): > 350 µM (not active)
EC50 (cells [9]): > 350 µM (not active)

O=C(CC1SC(N2CCCC2)=NC1=O)Nc1ccc(C(=O)Nc2ncccc2O)cc1 (stereo unspecified)
EC50 [14]: 11.1 µM (active)
EC50 (cells [8]): 40.5 µM (active)
EC50 (H4): 12.3 µM (active)
EC50 [15]: 16.5 µM (active)
EC50 (cells [9]): > 350 µM (not active)

COc1ccc(C(=O)Nc2ccc(N3CCCC3)cc2)cc1OC
EC50 (BJ [2]): > 150 µM (not active)
EC50 [16]: 1.03 µM (active)
EC50 (BJ [5]): 12.9 µM (active)
EC50 (BJ [6]): 14.9 µM (active)
EC50 [17]: 1.45 µM (active)
EC50 [7]: 11.2 µM (active)

CCCNc1c(F)c(F)c2c(C)c3ccccc3nc2c1F
EC50 [18]: > 300 µM (inconclusive)
EC50 [19]: 1.97 µM (active)
AC50 (Cytochrome P450 2D6): 25.1 µM (inconclusive)
IC50 (Protein skinhead-1): > 100 µM (inactive)

COc1ccc(-c2cc(C(=O)OCC(=O)c3cccc([N+](=O)[O-])c3)c3cc(C)ccc3n2)cc1
EC50 (BJ [2]): > 150 µM (not active)
EC50 (BJ [5]): > 150 µM (not active)
EC50 (BJ [6]): > 150 µM (not active)
EC50 [7]: > 150 µM (not active)

Clc1ccc2oc(-c3ccccn3)nc2c1
IC50 (Protein skinhead-1): 35.9 µM (active)

C(=C1c2ccccc2-c2ccccc21)c1ccccn1
IC50 (Protein skinhead-1): 59.4 µM (inactive)

O=c1c2ccccc2oc2ccc(C#CC3(O)CCCCC3)cc12
AC50 [12]: 6.5 µM (active)

O=C(Nc1ccccc1F)C1CCCC1
IC50 (Protein skinhead-1): > 100 µM (inactive)

COc1cccc(/C=N/Nc2nc3ccccc3n3cnnc23)c1
EC50 [1]: > 120 µM (not active)
EC50 [3]: 15.6 µM (active)
IC50 (H9c2): > 79 µM (inactive)
EC50 (cells [8]): > 350 µM (not active)
EC50 [4]: > 120 µM (not active)
EC50 (cells [9]): 191 µM (active)

Cc1ccc(/C=N/NC(=O)COc2ccccc2-c2ccccc2)cc1
AC50 (Paired box protein Pax-8): 0.77 µM (active)
EC50 (BJ [2]): 0.435 µM (inconclusive)
EC50 (BJ [5]): 0.605 µM (inconclusive)
EC50 (BJ [6]): 0.643 µM (inconclusive)
EC50 [7]: 0.657 µM (active)

O=C(COc1ccc(-c2ccccc2)cc1)N/N=C/c1cc(O)ccc1Br
AC50 [12]: 4.31 µM (active)
EC50 (Streptococcus): 4.98 µM (active)
EC50 [13]: 2.51 µM (active)
EC50 (Streptokinase A): 5.71 µM (active)

O=C(CCCOc1ccc(Cl)cc1Cl)N/N=C/c1ccccc1O
EC50 (cells [8]): 11.8 µM (active)
EC50 (cells [9]): > 350 µM (not active)

— ChEMBL document CHEMBL1201862, “PubChem BioAssay data set” (2004)
